Assay results: patent US9982017B2, “Synthetic apelin mimetics for the treatment of heart failure” (priority 2012, dated 2018)
*1 amine or outer side, *2 acyl side, *3 side chain or, on linkers, in order; H or OH if unused. Where a SMILES comes first, the peptide text is derived from it. Bridges are numbered along the chain shown (N, C = ends). [ ]: non-standard residue; d: D form. The star is where a group is joined. Palmitoyl = CCCCCCCCCCCCCCCC(=O)*; Cha = N[C@@H](CC1CCCCC1)C(=O)O; pGlu = O=C1CC[C@@H](C(=O)O)N1; CH2COCH2 = O=C(C[*:1])C[*:2]; NHPhenethyl = c1ccc(CCN*)cc1; Nle = CCCC[C@H](N)C(=O)O; AEEA = NCCOCCOCC(=O)O; Inp = O=C(O)C1CCNCC1

Tests used:
[1] = Plasma Stability Assay (LC-MS); assay type: in vitro ADME; settings: male, Sprague-Dawley, heparinized rat plasma, 37° C., Table 3, read-out: Plasma stability t½
Method: • Working solution: 1 mg/mL test article is prepared in Milli-Q water • Extraction solution: Methanol:Acetonitrile:Water (1:1:1) with 0.1% Formic Acid and 400 ng/mL Glyburide. • Plasma: Male Sprague-Dawley rat plasma (with sodium heparin), purchased from Bioreclamation LLC (Liverpool, N.Y.). • Whole blood: Male Sprague Dawley whole blood (with sodium heparin), purchased from Bioreclamation LLC (Liverpool, N.Y.) • Lung homogenate: Male rat Sprague Dawley lung was purchased from Bioreclamation LLC (Liverpool, N.Y.). The lung was homogenized using polytron homogenizer after addition of 5× volume of 1×PBS. The homogenate was centrifuged at 9000 rpm for 10 min at 4° C. The supernatant was centrifuged again at 3000 rpm for 30 min to make a clear supernatant. Protein concentration was determined using a commercial kit (Pierce, Thermo Scientific). Sample Preparation Procedure:
Test article was prepared in one of the following biological matrices: heparinized rat plasma, heparinized rat whole blood or lung homogenate. The plasma and whole blood sample was prepared at 5000 ng/mL by adding 5 uL of 1 mg/mL Working solution to 995 uL of rat plasma or whole blood. Lung homogenate samples were prepared by diluting lung homogenate to 1 mg/ml protein concentration with phosphate buffered saline (PBS), followed by addition of 5 uL Working solution to 995 uL diluted lung homogenate. The samples were incubated at 37° C. with gentle shaking (65˜75 rpm) in a water bath incubator. At times 0 min, 5 min, 15 min, 30 min, 60 min, 120 and 240 min, 25 uL aliquots of incubation samples were transferred to 96-well plate and immediately protein precipitated using 150 uL of Extraction solution. After completion of incubation experiment, the sample plate was centrifuged at 4000 rpm at 4° C. for 10 minutes. Afterwards, a pipetting device (Tecan Temo) was used to tranfer the supernatants to another plate and add 50 uL of water to all samples. The plate was vortexed prior to LC-MS analysis. • LC-MS Analysis of Stability Samples • HPLC: Agilent 1290 HPLC with autosampler • Column: MAC-MOD ACE C18, 3 μm, 30 mm×2.1 mm i.d. • Mobile phase A: 0.1% Formic acid in acetonitrile • Mobile phase B: 0.1% Formic acid in water Gradient Program: […]

in vitro = settings: rat, not told
hAPJ = molecular target: T1, hAPJ (Homo sapiens, UniProt P35414); test: hAPJ Calcium Flux Assay; assay type: cell-based; settings: Chem-5 APJ stable cells, FLIPR Calcium 4 dye; read-out: hAPJ Ca^2+ Flux EC50
T1 sequence (P35414 1-380): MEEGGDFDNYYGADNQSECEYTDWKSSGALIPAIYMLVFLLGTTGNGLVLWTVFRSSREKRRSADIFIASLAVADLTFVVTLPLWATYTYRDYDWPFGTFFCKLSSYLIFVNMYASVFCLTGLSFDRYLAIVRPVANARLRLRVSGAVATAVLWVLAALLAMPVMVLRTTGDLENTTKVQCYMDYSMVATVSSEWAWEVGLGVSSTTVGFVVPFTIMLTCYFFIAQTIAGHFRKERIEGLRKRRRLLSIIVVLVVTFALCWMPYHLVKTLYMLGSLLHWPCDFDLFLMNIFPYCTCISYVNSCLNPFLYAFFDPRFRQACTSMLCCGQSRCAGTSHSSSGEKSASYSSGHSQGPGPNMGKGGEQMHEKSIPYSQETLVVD
Method: Chem-5 APJ stable cells (Millipore # HTS068C) were plated in 384-well format with 10,000 cells/well in 25 ul growth media, then grown 24 hours in a 37° C. tissue culture incubator. One hour before the assay, 25 ul/well FLIPR Calcium 4 dye (Molecular Devices R8142) with 2.5 mM probenecid was added, and cells were incubated one hour in a 37° C. tissue culture incubator. Peptides were solubilized in HBSS, HEPES & 0.1% BSA buffer, and serially-diluted 10-fold, from 50 uM to 5 pM, in triplicate. FLIPR Tetra was used to add peptide to the cells with dye (1:5, for final peptide concentrations ranging from 10 uM to 1 pM). FLIPR dye inside the cells emitted fluorescence after binding to calcium, while fluorescence from outside the cells was masked. Fluorescence was measured using 470-495 excitation and 515-575 emission wavelengths on the FLIPR Tetra. Readings were done for 3 minutes total, beginning 10 seconds before the peptide addition. Maximum-minimum values were calculated and plotted for each peptide concentration, and Graph Pad prism software was used to calculate EC50 values at the curve inflection points, for calcium flux stimulation by peptides.

[2] = Surrogate Activity-Based Plasma Stability Assay (calcium flux EC50 after incubation with 5% rat plasma); settings: not told
[3] = Surrogate Activity based Plasma stability t½
[4] = Surrogate activity-based Plasma stability t½

SMILES | half-life at 5000 ng/mL [1] [h] | half-life (in vitro; [3]) [h] | half-life (in vitro; [4]) [h] | EC50 (hAPJ) [nM] | half-life [2] [h]
CCCC[C@@H]1NC(=O)[C@@H]2CCCN2C(=O)CNC(=O)[C@H](CCCCN)NC(=O)[C@H](Cc2cnc[nH]2)NC(=O)[C@@H](NC(=O)[C@H](CC(C)C)NC(=O)[C@H](CCCNC(=N)N)NC(=O)[C@@H]2CCCN2C(=O)[C@H](CCCNC(=N)N)NC(=O)[C@@H]2CCC(=O)N2)CSSC[C@@H](C(=O)N[C@@H](Cc2ccccc2)C(=O)O)NC1=O [Example 8, (S)-2-((3S,6R,11R,14S,17S,25aS)-14-((1H-imidazol-5-yl)methyl)-17-(4-aminobutyl)-3-butyl-11-((S)-2-((S)-5-guanidino-2-((S)-1-((S)-5-guanidino-2-((S)-5-oxopyrrolidine-2-carboxamido)pentanoyl)pyrrolidine-2-carboxamido)pentanamido)-4-methylpentanamido)-1,4,12,15,18,21-hexaoxodocosahydro-1H-pyrrolo[2,1-j][1,2,5,8,11,14,17,20]dithiahexaazacyclotricosine-6-carboxamido)-3-phenylpropanoic acid] ([pGlu]RPRLCHKGP[Nle]CF-OH; disulfide 6-12) | 2.72 | 6.78 | 6.78 | – | –
CCCC[C@@H]1NC(=O)[C@@H]2CCCN2C(=O)CNC(=O)[C@H](CCCCN)NC(=O)[C@H](Cc2c[nH]cn2)NC(=O)[C@@H](NC(=O)[C@H](CC(C)C)NC(=O)[C@H](CCCNC(=N)N)NC(=O)[C@@H]2CCCN2C(=O)[C@H](CCCNC(=N)N)NC(=O)[C@@H]2CCC(=O)N2)CSSC[C@@H](C(=O)NCCc2ccccc2)NC1=O [Example 12, pE-R-P-R-L-C-H-K-G-P-Nle-C-Phenethylamine] ([pGlu]RPRLCHKGP[Nle]C-NHPhenethyl; disulfide 6-12) | 0.898 | 1.6 | 1.56 | – | –
CCCC[C@@H]1NC(=O)[C@@H]2CCCN2C(=O)CNC(=O)[C@H](CCCCN)NC(=O)[C@@H]2CSSC[C@H](NC(=O)[C@@H]3CCCN3C(=O)[C@H](CCCNC(=N)N)NC(=O)[C@@H]3CCC(=O)N3)C(=O)N[C@@H](CC(C)C)C(=O)N[C@@H](CSSC[C@@H](C(=O)N[C@@H](Cc3ccccc3)C(=O)O)NC1=O)C(=O)N2 [Example 28, pE-R-P-C-L-C-C-K-G-P-Nle-C-F-OH] ([pGlu]RPCLCCKGP[Nle]CF-OH; disulfide 4-7, 6-12) | – | – | – | – | 7.34
CCCC[C@@H]1NC(=O)[C@@H]2CCCN2C(=O)CNC(=O)[C@H](CCCCN)NC(=O)[C@@H]2CSSC[C@H](NC(=O)[C@H](CCCNC(=N)N)NC(=O)[C@@H]3CCC(=O)N3)C(=O)N[C@@H](CCCNC(=N)N)C(=O)N[C@@H](CC(C)C)C(=O)N[C@@H](CSSC[C@@H](C(=O)N[C@@H](Cc3ccccc3)C(=O)O)NC1=O)C(=O)N2 [Example 29, pE-R-C-R-L-C-C-K-G-P-Nle-C-F-OH] ([pGlu]RCRLCCKGP[Nle]CF-OH; disulfide 3-7, 6-12) | – | – | – | – | 3.61
CCCC[C@@H]1NC(=O)[C@@H]2CCCN2C(=O)CNC(=O)[C@H](CCCCN)NC(=O)[C@H](Cc2cnc[nH]2)NC(=O)[C@@H](NC(=O)[C@H](CC(C)C)NC(=O)[C@H](CCCNC(=N)N)NC(=O)[C@@H]2CCCN2C(=O)[C@H](CCCNC(=N)N)NC(=O)[C@@H]2CCC(=O)N2)CSCC(=O)CSC[C@@H](C(=O)N[C@@H](Cc2ccccc2)C(=O)O)NC1=O [Example 64, (S)-2-((3S,6R,14R,17S,20S,28aS)-17-((1H-imidazol-5-yl)methyl)-20-(4-aminobutyl)-3-butyl-14-((S)-2-((S)-5-guanidino-2-((S)-1-((S)-5-guanidino-2-((S)-5-oxopyrrolidine-2-carboxamido)pentanoyl)pyrrolidine-2-carboxamido)pentanamido)-4-methylpentanamido)-1,4,10,15,18,21,24-heptaoxohexacosahydropyrrolo[2,1-i][1,23,4,7,10,13,16,19]dithiahexaazacyclohexacosine-6-carboxamido)-3-phenylpropanoic acid] ([pGlu]RPRLCHKGP[Nle]CF-OH; linker 6-12 via CH2COCH2) | – | – | – | – | 7.58

More lines, main results first:

half-life at 5000 ng/mL [1] [h] | half-life (in vitro; [3]) [h] | half-life (in vitro; [4]) [h] | EC50 (hAPJ) [nM] | SMILES | half-life [2] [h]
3.05 | 4.73 | 4.73 | – | CCCC[C@@H]1NC(=O)[C@@H]2CCCN2C(=O)CNC(=O)[C@H](CCCCN)NC(=O)[C@H](Cc2c[nH]cn2)NC(=O)[C@@H](NC(=O)[C@H](CC(C)C)NC(=O)[C@H](CCCNC(=N)N)NC(=O)[C@@H]2CCCN2C(=O)[C@H](CCCNC(=N)N)NC(=O)[C@@H]2CCC(=O)N2)CSSC[C@@H](C(=O)N[C@H](Cc2ccccc2)C(=O)O)NC1=O [Example 13, pE-R-P-R-L-C-H-K-G-P-Nle-C-f-OH] ([pGlu]RPRLCHKGP[Nle]C[dF]-OH; disulfide 6-12) | –
1.05 | 1.42 | 1.42 | – | N=C(N)NCCC[C@H](NC(=O)[C@@H]1CCCN1C(=O)[C@H](CCCNC(=N)N)NC(=O)[C@@H]1CCC(=O)N1)C(=O)N[C@@H](CC1CCCCC1)C(=O)N[C@H]1CSSC[C@@H](C(=O)N[C@@H](Cc2ccccc2)C(=O)O)NC(=O)[C@H](CC2CCCCC2)NC(=O)[C@@H]2CCCN2C(=O)CNC(=O)[C@H](CCCCN)NC(=O)[C@H](Cc2c[nH]cn2)NC1=O [Example 14, pE-R-P-R-Cha-C-H-K-G-P-Cha-C-F-OH] ([pGlu]RPR[Cha]CHKGP[Cha]CF-OH; disulfide 6-12) | –
0.17 | 0.223 | 0.223 | – | CCCC[C@@H]1NC(=O)[C@@H]2CCCN2C(=O)CNC(=O)[C@H](CCCCN)NC(=O)[C@H](Cc2c[nH]cn2)NC(=O)[C@@H](NC(=O)[C@H](CC(C)C)NC(=O)[C@H](CCCNC(=N)N)NC(=O)[C@@H]2CCCN2C(=O)[C@@H](N)CCCNC(=N)N)CSSC[C@@H](C(=O)N[C@@H](Cc2ccccc2)C(=O)O)NC1=O [Example 16, H-R-P-R-L-C-H-K-G-P-Nle-C-F-OH] (H-RPRLCHKGP[Nle]CF-OH; disulfide 5-11) | –
0.0383 | 0.235 | 0.235 | – | CCCC[C@@H]1NC(=O)[C@@H]2CCCN2C(=O)CNC(=O)[C@H](CCCCN)NC(=O)[C@H](Cc2c[nH]cn2)NC(=O)[C@@H](NC(=O)[C@H](CC(C)C)NC(=O)[C@H](CCCNC(=N)N)NC(=O)[C@@H]2CCCN2C(=O)[C@H](CCCNC(=N)N)NC(=O)[C@@H](N)CCCNC(=N)N)CSSC[C@@H](C(=O)N[C@@H](Cc2ccccc2)C(=O)O)NC1=O [Example 17, H-R-R-P-R-L-C-H-K-G-P-Nle-C-F-OH] (H-RRPRLCHKGP[Nle]CF-OH; disulfide 6-12) | –
3.67 | 4.13 | 4.13 | – | CCCC[C@@H]1NC(=O)[C@@H]2CCCN2C(=O)CNC(=O)[C@H](CCCCN)NC(=O)[C@H](Cc2c[nH]cn2)NC(=O)[C@@H](NC(=O)[C@H](CC(C)C)NC(=O)[C@H](CCCNC(=N)N)NC(=O)[C@@H]2CCCN2C(=O)[C@H](CCCNC(=N)N)NC(=O)C2CCNCC2)CSSC[C@@H](C(=O)N[C@@H](Cc2ccccc2)C(=O)O)NC1=O [Example 18, H-Isn-R-P-R-L-C-H-K-G-P-Nle-C-F-OH] (H-[Inp]RPRLCHKGP[Nle]CF-OH; disulfide 6-12) | –
– | – | 5.06 | 32.7 | CCCCCCCCCCCCCCCC(=O)NCCOCCOCC(=O)N[C@@H](CCC(N)=O)C(=O)N[C@@H](CCCNC(=N)N)C(=O)N1CCC[C@H]1C(=O)N[C@@H](CCCNC(=N)N)C(=O)N[C@@H](CC(C)C)C(=O)N[C@H]1CSSC[C@@H](C(=O)N[C@@H](Cc2ccccc2)C(=O)O)NC(=O)[C@H](CCCC)NC(=O)[C@@H]2CCCN2C(=O)CNC(=O)[C@H](CCCCN)NC(=O)[C@H](Cc2c[nH]cn2)NC1=O [Example 24, Palmitoyl-O2Oc-Q-R-P-R-L-C-H-K-G-P-Nle-C-F-OH] ({Palmitoyl-AEEA}-QRPRLCHKGP[Nle]CF-OH; disulfide 6-12) | –
